Reference: PubChem BioAssay (NCI)
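Cells were grown in 96-well plates and exposed to each compound for 48 hours at five concentrations; endpoints were interpolated linearly between bracketing concentrations, or set to the highest concentration if not reached. Definition used: TGI = concentration required for complete inhibition of growth.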

Legend:
Assay in all cases: NCI-60 cell line screen, 48 h
[1] = system: NCI-H226 lung
[2] = system: NCI-H460 lung
[3] = system: NCI/ADR-RES ovarian
[4] = system: HCC-2998 colon
[5] = system: HOP-92 NSCLC
[6] = system: MDA-MB-435
[7] = system: SNB-75 CNS
[8] = system: MDA-N
[9] = system: HCT-116 colon
[10] = system: HT29 colon
[11] = system: SK-MEL-28 melanoma
[12] = system: ACHN renal
[13] = system: UO-31 renal
[14] = system: MDA-MB-231 breast
[15] = system: MCF7 breast
[16] = system: MALME-3M melanoma
[17] = system: K-562 leukemia
[18] = system: CCRF-CEM leukemia
[19] = system: RPMI-8226 leukemia
[20] = system: TK-10 renal
[21] = system: CAKI-1 renal
[22] = system: HCT-15 colon
[23] = system: SK-MEL-5 melanoma
[24] = system: MOLT-4 leukemia
[25] = system: OVCAR-5 ovarian
[26] = system: 786-0 renal
[27] = system: DU-145 prostate
[28] = system: U251 CNS
[29] = system: M14 melanoma
[30] = system: LOX IMVI melanoma
[31] = system: SNB-19 CNS
[32] = system: OVCAR-3 ovarian
[33] = system: SW-620 colon
[34] = system: SF-268 CNS
[35] = system: A498 renal
[36] = system: PC-3 prostate
[37] = system: OVCAR-4 ovarian
[38] = system: UACC-62 melanoma
[39] = system: SR leukemia
[40] = system: SN12C renal
[41] = system: OVCAR-8 ovarian
[42] = system: NCI-H522 lung
[43] = system: IGROV1 ovarian
[44] = system: A549 NSCLC
[45] = system: T-47D breast
[46] = system: NCI-H23 lung
[47] = system: RXF 393 renal
[48] = system: KM12 colon
[49] = system: UACC-257 melanoma
[50] = system: COLO 205 colon
[51] = system: SF-539 CNS
[52] = system: EKVX NSCLC
[53] = system: SF-295 CNS
[54] = system: HOP-62 NSCLC
[55] = system: BT-549 breast
[56] = system: SK-OV-3 ovarian
[57] = system: HL-60(TB) leukemia
[58] = system: SK-MEL-2 melanoma
[59] = system: HS 578T breast

Measured: TGI

Cc1nn(-c2ccccc2)c2nc3c(c(C)nn3-c3ccccc3)c(-c3ccccc3Br)c12
> 100 µM: [1] | [2] | [3] | [4] | [5] | [6] | [7] | [8] | [9] | [10] | [11] | [12] | [13] | [14] | [15] | [16] | [17] | [18] | [19] | [20] | [21] | [22] | [23] | [24] | [25] | [26] | [27] | [28] | [29] | [30] | [31] | [32] | [33] | [34] | [35] | [36] | [37] | [38] | [39] | [40] | [41] | [42] | [43] | [44] | [45] | [46] | [47] | [48] | [49] | [50] | [51] | [52] | [53] | [54] | [55] | [56]

CC1N(O)C(c2ccccc2)C(c2ccccc2)=[N+]1[O-] (configuration not stated)
> 100 µM: [1] | [2] | [3] | [4] | [5] | [7] | [8] | [9] | [10] | [11] | [12] | [13] | [14] | [15] | [16] | [17] | [18] | [20] | [21] | [22] | [23] | [24] | [25] | [26] | [57] | [28] | [29] | [58] | [30] | [31] | [32] | [33] | [35] | [36] | [37] | [38] | [39] | [40] | [41] | [43] | [44] | [59] | [46] | [47] | [48] | [49] | [50] | [51] | [52] | [53] | [54] | [55] | [56]

O=c1oc2ccccc2c(O)c1C(c1ccc2ccccc2c1)c1c(O)c2ccccc2oc1=O
67.9 µM: [1]
60.8 µM: [55]
45.3 µM: [40]
87.7 µM: [33]
48.5 µM: [42]
70.6 µM: [59]
62 µM: [25]
68.8 µM: [46]
35.4 µM: [13]
74.7 µM: [26]
38.5 µM: [3]
68.9 µM: [8] | [51]
78.2 µM: [50]
50.8 µM: [34]
80.1 µM: [11]
75.5 µM: [57]
47.1 µM: [14]
54.7 µM: [21]
90.3 µM: [43]
39.2 µM: [28]
41.7 µM: [12]
> 100 µM: [5] | [9] | [15] | [17] | [18] | [19] | [20] | [27] | [58] | [30] | [31] | [32] | [35] | [36] | [37] | [38] | [44] | [45] | [47] | [49] | [52] | [53] | [54] | [56]
48.7 µM: [7]
59.7 µM: [6]
57.5 µM: [16]
31.6 µM: [41]
32.8 µM: [4]
54.4 µM: [23]
47.5 µM: [22]
73.2 µM: [2] | [29]
55.1 µM: [24]
33.8 µM: [10]
40 µM: [48]

CC(C)CC(=O)OC[n+]1cccc(-c2c(COC(=O)NC(C)C)c(COC(=O)NC(C)C)c3n2CCC3)c1
59 µM: [35]
73.9 µM: [21]
49.2 µM: [42]
91.6 µM: [13]
76.9 µM: [5]
79.7 µM: [27]
> 100 µM: [1] | [2] | [3] | [4] | [6] | [7] | [8] | [9] | [10] | [11] | [12] | [14] | [15] | [16] | [17] | [18] | [19] | [20] | [22] | [23] | [24] | [25] | [28] | [29] | [58] | [30] | [31] | [32] | [33] | [34] | [36] | [37] | [38] | [39] | [40] | [41] | [43] | [44] | [45] | [59] | [46] | [47] | [48] | [49] | [50] | [51] | [52] | [53] | [54] | [55] | [56]
97.7 µM: [26]

CC(C)CC(NC(=O)OCc1ccccc1)C(=O)NCCCCC(N)C(=O)NC(CCCCNC(=O)C(CC(C)C)NC(=O)OCc1ccccc1)C(=O)NC(CCCCNC(=O)C(CC(C)C)NC(=O)OCc1ccccc1)C(=O)NC(CCCCNC(=O)C(CC(C)C)NC(=O)OCc1ccccc1)C(=O)NC(CCCCNC(=O)C(CC(C)C)NC(=O)OCc1ccccc1)C(=O)NC(CCCCNC(=O)C(CC(C)C)NC(=O)OCc1ccccc1)C(=O)O (configuration not stated)
> 100 µM: [1] | [2] | [4] | [6] | [8] | [9] | [10] | [12] | [13] | [14] | [15] | [16] | [17] | [18] | [19] | [20] | [22] | [23] | [24] | [25] | [26] | [57] | [27] | [28] | [58] | [30] | [31] | [32] | [33] | [35] | [36] | [37] | [38] | [39] | [40] | [41] | [42] | [43] | [44] | [45] | [46] | [49] | [54] | [55]

O=C(n1[nH]c(=O)n(-c2ccc([N+](=O)[O-])cc2)c1=O)C(Cl)(Cl)Cl
> 75 µM: [1] | [2] | [3] | [4] | [6] | [7] | [8] | [9] | [10] | [11] | [12] | [13] | [14] | [15] | [16] | [17] | [19] | [20] | [21] | [22] | [23] | [24] | [25] | [26] | [57] | [27] | [28] | [29] | [58] | [30] | [31] | [32] | [33] | [34] | [36] | [37] | [38] | [39] | [40] | [41] | [42] | [43] | [44] | [45] | [59] | [46] | [47] | [48] | [49] | [50] | [52] | [53] | [54] | [55] | [56]

CCOC(=O)C(NC(=O)NCc1ccc(F)cc1)C(F)(F)F (configuration not stated)
> 100 µM: [3] | [4] | [6] | [7] | [8] | [9] | [10] | [11] | [12] | [13] | [17] | [18] | [19] | [20] | [22] | [23] | [25] | [26] | [57] | [28] | [29] | [58] | [30] | [31] | [33] | [34] | [35] | [36] | [39] | [40] | [41] | [43] | [44] | [45] | [59] | [46] | [47] | [49] | [50] | [51] | [52] | [55] | [56]
